Assay results reported in patent publication US8821864B2, “Compounds and methods useful for detection and treatment of cancer” (Roche MTM Laboratories AG, priority 2002, dated 2014).

System: HLA-A2.1 expressing cell lines presenting frameshift peptides
Assay: Cytotoxicity assay of CTL directed against cells displaying frameshift peptides
Format: cell-based, human
Details: cold targets: T2 cells pulsed with peptide, inhibitor:target ratio 50:1
Method: (§1) (FSP02); The antigen specificity of the FSP02 CTL line was tested in the presence of unlabeled cold targets, T2 cells pulsed with FSP02 (open squares) at an inhibitor:target ratio of 50:1. Lysis without cold targets is shown as a control (closed squares). All data are shown as the mean and standard deviation from 3 replicate wells. For experimental details see example 6.
as §1, with “(FSP06);” for “(FSP02);”, “FSP06” for “FSP02”, “pulsed either” for “pulsed”
CTL bulk cultures and/or CTL clones obtained according to the method described in Example 1 were tested for their cytotoxicity as follows:
Due to the limited amount of cell material clones were in some experiments pooled for the determination of the cytotoxicity. […]

Sequence | lysis of target cells by FSP CTL line (antigen specificity)
RLSSCVPVA [FSP02, frameshift peptide from TGF-betaRII (−1), start amino acid 131] | Frameshift peptide specific and HLA-A2-restricted lysis of target cells
SLYKFSPFPL [FSP06, frameshift peptide from OGT (−1), start amino acid 128] | Frameshift peptide specific and HLA-A2-restricted lysis of target cells
